Experimental data as given in EPA's ToxValDB 9.5 (doi:10.2903/j.efsa.2013.3373).
Values joined by “and” are separate entries in the source; they are usually repeats but may differ in a detail not shown here. Equal values may be shown once.

Tests used:
Bibionidae = settings: chronic/long-term; duration: 28 days; development
Canidae = settings: subchronic; duration: 3 months; oral; gavage; Dog Other; organ weight
Apis mellifera = settings: acute, duration: 96 hours, mortality
Rattus norvegicus = settings: for NOAEL: reproduction developmental
Cyprinodon variegatus = settings: chronic/long-term; duration: 41 days; mortality
Neomysis kadiakensis = settings: chronic/long-term; duration: 28 days; reproduction
Colinus virginianus = settings: for LD50: acute, oral, mortality
Chironomus tentans = settings: acute; duration: 10 days; mortality
Mus musculus = settings: acute, oral, mortality
Oncorhynchus mykiss = settings: mortality
Danio rerio = settings: chronic; duration: 148 days
Daphnia magna = settings: chronic/long-term; duration: 21 days; reproduction

## N#Cc1ccc(CC(=NNC(=O)Nc2ccc(OC(F)(F)F)cc2)c2cccc(C(F)(F)F)c2)cc1 (mixture of isomers) [Metaflumizone]
Bibionidae
  NOEC: 2.56 µg/L
Canidae
  NOAEL: 6 mg/kg-day
Apis mellifera; dermal
  LD50: 1.65 µg/piece
Apis mellifera; oral, unspecified
  LD50: 2.43 µg/piece
Rattus norvegicus; acute, oral, mortality
  LD50: > 5000 mg/kg-day
Rattus norvegicus; body weight
  NOAEL: 40 mg/kg-day
Rattus norvegicus; reproduction
  NOAEL: 20 mg/kg-day
Cyprinodon variegatus
  NOEC: 1.15 µg/L
Neomysis kadiakensis
  NOEC: 0.654 µg/L
Tagia sp.; acute, duration: 14 days, mortality
  LC50: > 1000 mg/kg
Tagia sp.; chronic/long-term
  NOEC: 6.92 mg/kg
Colinus virginianus; diet
  LD50: 306 mg/kg-day
Colinus virginianus
  LD50: > 2020 mg/kg-day
Colinus virginianus; reproduction developmental, reproduction
  NOEL: 0.53 mg/kg-day
Chironomus tentans
  LC50: 1800 µg/kg
Mus musculus; duration: 7 days, diet
  LD50: 101 mg/kg-day
Mus musculus
  LD50: > 5000 mg/kg-day
Oncorhynchus mykiss; acute, duration: 96 hours
  LC50: > 0.228 µg/mL
Oncorhynchus mykiss; chronic/long-term, duration: 93 days
  NOEC: 1.47 µg/L
Danio rerio
  NOEC: 0.015 mg/L
Daphnia magna
  NOEC: 1.47 µg/L
Anas platyrhynchos; acute, oral, unspecified, mortality
  LD50: > 2020 mg/kg-day
Anas platyrhynchos; reproductive, reproduction
  NOEL: < 4.4 mg/kg-day and 1.8 mg/kg-day
